Target: P-glycoprotein (P-gp, MDR1, ABCB1) (Homo sapiens, UniProt P08183)
Assay: Bidirectional MDCK-MDR1 permeability assay (Cyprotex)
Details: dog, MDCK-MDR1

Sequence of P-glycoprotein (P-gp, MDR1, ABCB1) (P08183 whole entry): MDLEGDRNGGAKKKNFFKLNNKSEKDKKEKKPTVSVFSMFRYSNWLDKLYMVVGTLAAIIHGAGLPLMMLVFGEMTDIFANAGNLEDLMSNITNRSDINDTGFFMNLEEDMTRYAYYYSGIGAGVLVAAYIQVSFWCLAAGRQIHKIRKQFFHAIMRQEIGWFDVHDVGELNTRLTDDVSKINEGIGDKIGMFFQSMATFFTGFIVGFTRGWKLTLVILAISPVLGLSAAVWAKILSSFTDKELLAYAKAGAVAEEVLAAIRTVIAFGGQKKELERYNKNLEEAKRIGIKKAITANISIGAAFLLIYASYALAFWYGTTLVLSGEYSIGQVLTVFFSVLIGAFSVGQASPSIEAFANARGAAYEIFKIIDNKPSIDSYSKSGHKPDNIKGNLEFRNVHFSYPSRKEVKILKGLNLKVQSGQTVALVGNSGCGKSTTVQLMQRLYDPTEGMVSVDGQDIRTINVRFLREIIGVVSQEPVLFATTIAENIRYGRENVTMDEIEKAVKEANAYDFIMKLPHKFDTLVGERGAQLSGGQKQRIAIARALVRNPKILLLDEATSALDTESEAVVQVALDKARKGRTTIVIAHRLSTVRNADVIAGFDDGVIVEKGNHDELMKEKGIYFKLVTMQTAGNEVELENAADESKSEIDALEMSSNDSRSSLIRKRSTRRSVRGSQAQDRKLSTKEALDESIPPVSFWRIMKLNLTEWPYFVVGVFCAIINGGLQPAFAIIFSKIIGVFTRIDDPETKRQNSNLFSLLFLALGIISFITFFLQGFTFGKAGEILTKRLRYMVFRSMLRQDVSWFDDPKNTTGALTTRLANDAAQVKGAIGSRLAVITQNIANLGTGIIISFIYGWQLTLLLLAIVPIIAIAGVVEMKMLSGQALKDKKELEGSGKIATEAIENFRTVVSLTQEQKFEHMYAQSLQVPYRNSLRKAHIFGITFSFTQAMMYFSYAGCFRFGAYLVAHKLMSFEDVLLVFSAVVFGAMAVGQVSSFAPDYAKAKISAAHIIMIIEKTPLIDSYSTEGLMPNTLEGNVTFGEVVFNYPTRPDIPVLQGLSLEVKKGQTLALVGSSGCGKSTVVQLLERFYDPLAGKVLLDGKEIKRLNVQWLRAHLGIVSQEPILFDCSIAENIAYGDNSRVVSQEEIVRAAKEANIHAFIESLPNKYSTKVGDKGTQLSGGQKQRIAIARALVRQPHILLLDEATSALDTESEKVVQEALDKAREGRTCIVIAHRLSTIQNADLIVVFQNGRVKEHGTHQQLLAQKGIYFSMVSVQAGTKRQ

Structure (SMILES): CN(C)C(=O)C(CCN1CCC(O)(c2ccc(Cl)cc2)CC1)(c1ccccc1)c1ccccc1 [loperamide]
- efflux ratio at 2 h, 10 µM: ~350
